# Measurements: US8114850B2, “Antiproliferative activity of G-rich oligonucleotides and method of using same to bind to nucleolin” (Advanced Cancer Therapeutics, LLC, priority 1999, dated 2012)
# Columns and labels:
# [1] = tested on: non-small-cell lung cancer (NSCLC); test: Phase 1 study, NSCLC patients; format: in vivo, human; settings: RECIST
# Procedure: (§1) A Phase 1, open label, non-randomized dose escalation study of SEQ ID NO:12 was conducted on 17 human individuals with various advanced malignancies. […] After these 17 individuals had received treatment, only individuals with RCC (renal-cell carcinoma) or non-small-cell lung cancer (NSCLC) were enrolled in the clinical trial to obtain data for more homogenous patient populations and thereby enhance the quality of the results.
# Following these findings, the trial was extended to include additional individuals (“patients”) with RCC (renal-cell carcinoma) or non-small-cell lung cancer. All of said individuals had progressive, metastatic cancers upon entry to the study. […] All individuals enrolled in the study were evaluable for toxicity and response and had measurable disease, i.e. able to be measured accurately in one or more dimension(s). […]
# (§2) Baseline evaluations included medical history, 12-lead electrocardiogram, safety assessments and tumor measurements within 1 week of the start of the study. Individuals were monitored in the hospital during infusion of the SEQ ID NO:12 aptamer (days 1-8) and then evaluated subsequently on days 15, 29 and 58.
# Efficacy was assessed by tumor measurements and radiological evaluation at baseline ([…] to the start of the study), at day 29 and day 58. […]
# [2] = biological target: T1, G-rich oligonucleotide binding protein / nucleolin (Homo sapiens, UniProt P19338); test: Protein binding, summary statements (EMSA); settings: characterization of the aptamer
# T1 construct: endogenous in cells; MDA-MB-231)
# Text: By G-rich oligonucleotide (GRO) it is meant that the oligonucleotides consist of 4-100 nucleotides (preferably 10-30 nucleotides) with DNA, RNA, 2′-O-methyl, phosphorothioate or other chemically similar backbones. Their sequences contain one or more GGT motifs. The oligonucleotides have antiproliferative activity against cells and bind to GRO binding protein and/or nucleolin.
# Additionally, the present invention provides a method for selecting oligonucleotides that bind to nucleolin. The method utilizes an electrophoretic mobility shift assay (EMSA), as described below, to screen for oligonucleotides that bind strongly to nucleolin and which, therefore, would be expected, according to the present invention, to have anti-proliferative activity. Oligonucleotides to be screened as potential antiproliferative agents are labeled and then incubated with nuclear extracts in the absence or presence of unlabeled competitor oligonucleotide and are allowed to react. The reaction mixtures are then electrophoresed and mobility shifts and/or bond intensity can be used to identify those oligonucleotides which have bound to the specific protein.
# Alternatively, unlabeled compounds to be screened are incubated with nuclear extracts in the presence of labeled oligonucleotide (for example 5′-TTAGGGTTAGGGTTAGGG TTAGGG) (SEQ ID NO: 20) and binding is assessed by a decrease in the intensity of the shifted band, as in FIG. 6B.
# tumor cells = test: In-vitro experiments with SEQ ID NO:12 in tumor cells; format: cell-based
# Text: SEQ ID NO: 12, a G-rich oligonucleotide (GRO) aptamer comprising a single-strand oligonucleotide of 26 bases, was selected for the study. […] Preclinical data indicates potential of SEQ ID NO: 12 against a wide variety of solid and hematologic malignancies.
# [3] = tested on: advanced, metastatic RCC (renal-cell carcinoma); test: Phase 1 study, RCC patients; format: in vivo, human
# Procedure: as §1
# Following these findings, the trial was extended to include additional individuals (“patients”) with RCC (renal-cell carcinoma) or non-small-cell lung cancer. All of said individuals had progressive, metastatic cancers upon entry to the study. It should be noted that none of the individuals had received chemotherapy, radiotherapy or any investigational agent for cancer within the 4 weeks prior to entry to the study or 6 weeks prior for nitrosourea or mitomycin C. All individuals enrolled in the study were evaluable for toxicity and response and had measurable disease, i.e. able to be measured accurately in one or more dimension(s). Participants of the study were recruited at one site: the University of Louisville, James Brown Cancer Center, in Louisville, Ky., USA. The study was conducted in accordance with Good Clinical Practices and the Declaration of Helsinki. Institutional Review Board approval and informed patient consent were obtained before the study began.
# (§3) The SEQ ID NO:12 aptamer was administered to individuals as a continuous intravenous infusion. All individuals received one or two cycles of treatment. The dose escalation protocol provided a division of the subjects into cohorts of 3 in sequential order. If no individuals in a cohort experienced DLT within […] of treatment, the dosage was escalated to the next level. The dosage was increased up to 10 mg/kg/day for 7 days in the first 17 individuals and increased up to 40 mg/kg/day for 7 days in the RCC/NSCLC extension. The original starting dose was about 1 mg/kg/day for 4 days for both sets of individuals.
# If no subject in the first cohort experienced DLT within 14 days of treatment, the dose for the next cohort was escalated to the next level. […] For this study, DLT was identified as grade 3-4 non-hematological toxicity, grade 4 hematological toxicity that persisted for 3 or more days, grade 4 febrile neutropenia, or grade 4 thrombocytopenia with bleeding. Toxicity was graded according to the National Cancer Institute Common Terminology for Adverse Events (“NCI-CTCAE”) version 3.0.
# Dose escalation was accomplished by doubling until a biological effect was noted (i.e., by development of NCI-CTCAE grade 2 toxicity), at which point the dose was escalated using a modified Fibonacci design (dose increments to 1.6 times the pervious dose level). The maximum dose for the study was 40 mg/kg/day.
# as §2
# Efficacy was assessed by tumor measurements and radiological evaluation at baseline ([…] to the start of the study), at day 29 and day 58.
# Tumor measurements were conducted using photographs (skin lesions), chest X-rays, CT scans, magnetic resonance imaging (MRI) and ultrasound. The assessments of tumor measurements were conducted using the Response Evaluation Criteria in Solid Tumors (RECIST) guidelines. See Arbuck et al., (2000) Journal Nat'l Cancer Inst., 92: 205-16. All tumor measurements were taken in metric notation using a ruler or caliper.
# As a preliminary note, tumor response was evaluated using RECIST guidelines and categorized as complete response (CR), partial response (PR), stable disease (SD) or progressive disease (PD). […]
# Phase 1 study, toxicity = format: in vivo, human; settings: doses up to 40 mg/kg/day for up to 7 days, continuous i.v. infusion
# Procedure: as §3
# If no subject in the first cohort experienced DLT within 14 days of treatment, the dose for the next cohort was escalated to the next level. […] For this study, DLT was identified as grade 3-4 non-hematological toxicity, grade 4 hematological toxicity that persisted for 3 or more days, grade 4 febrile neutropenia, or grade 4 thrombocytopenia with bleeding. […]
# as §2
# Stability in serum = format: in vitro ADME
# Procedure: The effects of four G-rich phosphodiester oligonucleotides (GROs) on the growth of tumor cells in culture were tested. These oligonucleotides consisted entirely of deoxyguanosine and thymidine and contained at least two contiguous guanosines. For increased stability to serum nucleases, oligonucleotides were modified at the 3′-terminus with a propylamino group. This modification protects the oligonucleotides from degradation in serum containing medium for at least twenty-four hours.
# [4] = tested on: MDA-MB-231 breast cancer cells; test: Chemotherapeutic agent and GRO combination, MTT assay; format: cell-based, human; settings: cisplatin 0.5 µg/ml, GR029A 8 uM added after two hours, MTT after six days
# Procedure: Cisplatin (in 1% DMSO solution to give a final concentration of […]) was added to the medium of MDA-MB-231 breast cancer cells growing in culture. After two hours, GR029A (in PBS solution to give a final concentration of 8 uM) was added to the medium. After six days, the relative number of viable cells was determined using the MTT assay. Cells treated with GR029A alone received an appropriate volume of 1% DMSO in place of cisplatin. Cells treated with cisplatin alone received an appropriate volume of PBS in place of GR029A.
# T1 sequence (P19338 whole entry): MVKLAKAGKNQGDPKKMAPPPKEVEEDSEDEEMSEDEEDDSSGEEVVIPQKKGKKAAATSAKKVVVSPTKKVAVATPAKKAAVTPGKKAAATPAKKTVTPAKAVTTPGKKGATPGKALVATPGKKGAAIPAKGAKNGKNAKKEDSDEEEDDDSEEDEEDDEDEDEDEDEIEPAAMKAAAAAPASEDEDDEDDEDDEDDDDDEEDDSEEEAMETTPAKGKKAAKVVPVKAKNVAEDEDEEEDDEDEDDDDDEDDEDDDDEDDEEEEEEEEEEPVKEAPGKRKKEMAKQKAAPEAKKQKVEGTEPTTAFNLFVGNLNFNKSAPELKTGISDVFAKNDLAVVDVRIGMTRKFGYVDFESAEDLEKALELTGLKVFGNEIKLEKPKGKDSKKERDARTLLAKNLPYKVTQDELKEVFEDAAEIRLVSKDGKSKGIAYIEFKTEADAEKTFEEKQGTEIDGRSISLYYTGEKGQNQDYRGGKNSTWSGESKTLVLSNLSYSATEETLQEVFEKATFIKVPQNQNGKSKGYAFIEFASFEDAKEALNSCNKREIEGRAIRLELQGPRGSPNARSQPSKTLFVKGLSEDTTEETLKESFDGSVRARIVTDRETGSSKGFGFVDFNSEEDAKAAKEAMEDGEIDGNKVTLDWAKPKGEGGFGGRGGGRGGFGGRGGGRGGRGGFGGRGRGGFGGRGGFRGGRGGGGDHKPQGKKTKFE
Compound,stable disease for the duration of the study [1],specificity of binding [2],anti-proliferative response in tumor cells (tumor cells),"metastasis, first RCC responder ([3]; 18 months after treatment)","disease status, first RCC responder ([3]; 26 months after one seven-day infusion at 10 mg/kg)","clinical benefit (CR+PR+SD) ([3]; RCC patients, RECIST)","response rate (CR+PR) ([3]; RCC patients, continuous i.v. infusion, up to 40 mg/kg/day for up to 7 days, RECIST)","complete response ([3]; RCC subjects, RECIST)","partial response ([3]; RCC subjects, RECIST)","stable disease for the duration of the study ([3]; RCC subjects, RECIST)","decrease in the sum of greatest linear dimensions of target lesions from baseline ([3]; second RCC responder, two seven-day infusions at 22 mg/kg)","tolerability / toxicity (Phase 1 study, toxicity)",stability in serum (Stability in serum),growth modulation [4]
5′-GGTGGTGGTGGTTGTGGTGG TGGTGG-3′ [SEQ ID NO:12],40%,specificity for nucleolin,strong anti-proliferative response,single brain metastasis,no evidence of disease,75%,17%,8.4%,8.4%,58%,about 70%,well tolerated with no serious toxicity of any type related to drug administration,extremely stable and resistant to degradation by serum enzymes,–
"N.N.[Cl][Pt][Cl] [cis-platin, reference compound]",–,–,–,–,–,–,–,–,–,–,–,–,–,29%
